Experimental findings from patent US20230302083A1, “HIGHLY-NETWORKED C[…] COMPOSITION” (priority 2020, published 2023) are described below.

The target in one test is T1, HLA-A*0301 (Homo sapiens, UniProt P04439).
T1 construct: expressed in transfected cells; host or cells: TAP-deficient (CRISPR/Cas9) HLA-A*0301 mono-allelic 721.221 human B cells
As to the kind of experiment: HLA class I-peptide stability assay in TAP-deficient HLA-A*0301 mono-allelic cells. The class given is cell-based.

Another test has as its system HLA class I alleles. In kind it is cell-based, human.

With RVIHFGAGSDK [A3 COVID 3], in the test with HLA-A*0301, the “HLA-A*0301 stabilization” value was “HLA stabilizing”.
Regarding NPLLYDANYFL [B81 COVID 14], in the test with HLA class I alleles, the “50% Experimental Binder” value is “YES”.
As to YQDVNCTEV [B39 COVID 11], in the test with HLA class I alleles, the “50% Experimental Binder” value is “YES”.
As to MIAQYTSAL [B7 COVID 16], in the test on HLA class I alleles, the “stabilization of HLA class I alleles” value is on record as “stabilized a number of HLA class I alleles”.
KGIYQTSNFR [A3 COVID 15]: in the test with HLA-A*0301, the “HLA-A*0301 stabilization” value is “HLA stabilizing”.
